Experimental data published in publication PMC5618656, “Interference of Paraben Compounds with Estrogen Metabolism by Inhibition of 17β-Hydroxysteroid Dehydrogenases” (International Journal of Molecular Sciences, 2017).
Read-outs that look alike come from different tables or passages of the source.

How the values were obtained:
[1] = target: T1, 17β-hydroxysteroid dehydrogenase 2 (17β-HSD2) (Homo sapiens, UniProt P37059); assay: radiolabeled estradiol to estrone conversion in lysates of HEK-293 cells transfected with human […]β-HSD2; type: biochemical
T1 construct: gene HSD17B2
T1 sequence (P37059 1-387): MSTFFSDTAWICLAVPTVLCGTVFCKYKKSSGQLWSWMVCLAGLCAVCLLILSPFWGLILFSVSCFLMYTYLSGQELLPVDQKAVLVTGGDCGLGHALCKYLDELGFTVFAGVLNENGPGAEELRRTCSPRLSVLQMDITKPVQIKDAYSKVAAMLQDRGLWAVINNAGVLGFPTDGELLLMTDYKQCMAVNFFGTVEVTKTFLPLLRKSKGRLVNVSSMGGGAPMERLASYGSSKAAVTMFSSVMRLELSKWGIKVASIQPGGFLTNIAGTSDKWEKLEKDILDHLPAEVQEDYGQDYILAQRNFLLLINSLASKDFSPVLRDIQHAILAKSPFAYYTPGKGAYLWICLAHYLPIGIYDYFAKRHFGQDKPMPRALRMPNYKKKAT

[2] = target: T1, 17β-hydroxysteroid dehydrogenase 2 (17β-HSD2); assay: biochemical; parameters: species or system HEK-293 (transiently transfected); Radiolabeled estradiol to estrone conversion (200 nM, NAD+) in lysates of 17β-HSD2-transfected cells; TLC and scintillation counting
Procedure: Lysate activity assays were performed as previously described. Briefly, HEK-293 cells (ATCC) were transiently transfected with expression constructs for human 17β-HSD1 or 17β-HSD2 using the calcium phosphate precipitation method. Lysates of HEK-293 cells expressing 17β-HSD1 or 17β-HSD2 were incubated at 37 °C for 10 min in TS2 buffer (100 mM NaCl, 1 mM EDTA, 1 mM EGTA, 250 mM sucrose, 1 mM MgCl2, 20 mM Tris-HCl, pH 7.4), containing either the inhibitor at the respective concentration or solvent (0.2% DMSO). 17β-HSD1 activity was determined in the presence of 200 nM estrone, including 50 nCi of [2,4,6,7-^3H]-estrone and 500 μM NADPH. Whereas, the 17β-HSD2 activity was performed in the presence of 200 nM estrone, including 50 nCi of [2,4,6,7-^3H]-estradiol and 500 μM NAD+.  Figure 4 (A) Inhibition of estrone formation by parabens in human embryonic kidney (HEK-293) cell lysates expressing human 17β-HSD2. The conversion of estradiol to estrone was measured in lysates of HEK-293 cells transiently transfected with 17β-HSD2 in the presence of 200 nM radiolabeled estradiol and parabens or paraben-like compounds at a final concentration of 20 µM. 17β-HSD2 inhibitor BM13 served as positive control (compound 22 in [18]). Statistical analyses were performed using one-way analysis of variance (ANOVA) test followed by a Dunnett post-hoc test. […] (B) Concentration-dependent inhibition of 17β-HSD2 by ethylparaben and ethyl vanillate. Results represent the mean ± standard deviation (SD) of three independent measurements. To determine 17β-HSD1 activity in COV434 cells, cells were seeded (50,000) into 96-well plates and incubated for 90 min with 200 nM estrone, including 50 nCi of [2,4,6,7-^3H]-estrone in serum-free charcoal treated media containing either the inhibitor at the respective concentration or solvent (0.1% DMSO). Both activity essays were stopped by adding a 1:1 ratio of 2 mM unlabeled estrone and estradiol in methanol. Radiolabeled steroids were obtained from Perkin-Elmer (Boston, MA, USA) whereas normal steroids and cofactors were purchased from Sigma-Aldrich. Estrogens were separated by thin layer chromatography and samples were analyzed using scintillation counting. All data were collected from at least three independent measurements.

[3] = target: T2, 17β-hydroxysteroid dehydrogenase 1 (17β-HSD1) (Homo sapiens, UniProt P14061); assay: biochemical; parameters: species or system HEK-293 (transiently transfected); Radiolabeled estrone to estradiol conversion (200 nM, NADPH) in lysates of 17β-HSD1-transfected cells; TLC and scintillation counting
T2 construct: gene HSD17B1
T2 sequence (P14061 2-328): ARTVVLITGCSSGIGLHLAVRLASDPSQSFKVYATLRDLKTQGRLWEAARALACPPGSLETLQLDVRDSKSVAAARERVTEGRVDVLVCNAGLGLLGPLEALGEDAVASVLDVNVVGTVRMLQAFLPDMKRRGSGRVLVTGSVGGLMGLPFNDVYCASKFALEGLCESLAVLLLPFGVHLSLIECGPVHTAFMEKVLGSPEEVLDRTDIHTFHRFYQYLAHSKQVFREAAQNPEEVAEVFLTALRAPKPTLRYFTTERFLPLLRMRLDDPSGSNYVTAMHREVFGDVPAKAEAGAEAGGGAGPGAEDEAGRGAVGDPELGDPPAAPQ
Procedure: Lysate activity assays were performed as previously described. Briefly, HEK-293 cells (ATCC) were transiently transfected with expression constructs for human 17β-HSD1 or 17β-HSD2 using the calcium phosphate precipitation method. Lysates of HEK-293 cells expressing 17β-HSD1 or 17β-HSD2 were incubated at 37 °C for 10 min in TS2 buffer (100 mM NaCl, 1 mM EDTA, 1 mM EGTA, 250 mM sucrose, 1 mM MgCl2, 20 mM Tris-HCl, pH 7.4), containing either the inhibitor at the respective concentration or solvent (0.2% DMSO). 17β-HSD1 activity was determined in the presence of 200 nM estrone, including 50 nCi of [2,4,6,7-^3H]-estrone and 500 μM NADPH. Whereas, the 17β-HSD2 activity was performed in the presence of 200 nM estrone, including 50 nCi of [2,4,6,7-^3H]-estradiol and 500 μM NAD+.  Figure 6 (A) Inhibition of 17β-HSD1 activity by parabens. 17β-HSD1 activity was measured in lysates of transiently-transfected HEK-293 cells, using DMSO as a negative, and apigenin as a positive, control. Statistical analyses were performed using one-way ANOVA followed by a Dunnett post-hoc test. […] (B) Concentration-dependent inhibition of 17β-HSD1 by [compound left out]- and heptylparaben. The conversion of estrone to estradiol was measured in lysates of HEK-293 cells transfected with 17β-HSD1 and (C) in intact human COV434 granulosa cells endogenously expressing 17β-HSD1. Results represent the mean ± SD of three independent experiments. To determine 17β-HSD1 activity in COV434 cells, cells were seeded (50,000) into 96-well plates and incubated for 90 min with 200 nM estrone, including 50 nCi of [2,4,6,7-^3H]-estrone in serum-free charcoal treated media containing either the inhibitor at the respective concentration or solvent (0.1% DMSO). Both activity essays were stopped by adding a 1:1 ratio of 2 mM unlabeled estrone and estradiol in methanol. Radiolabeled steroids were obtained from Perkin-Elmer (Boston, MA, USA) whereas normal steroids and cofactors were purchased from Sigma-Aldrich. Estrogens were separated by thin layer chromatography and samples were analyzed using scintillation counting. All data were collected from at least three independent measurements.

[4] = target: T1, 17β-hydroxysteroid dehydrogenase 2 (17β-HSD2); assay: radiolabeled estradiol conversion in lysates of transfected HEK-293 cells at […]; also significant at […]; type: cell-based; conditions: HEK293
[5] = target: T2, 17β-hydroxysteroid dehydrogenase 1 (17β-HSD1); assay: radiolabeled estrone to estradiol conversion in lysates of transfected HEK-293 cells; also intact COV434 cells (IC50 […]); type: biochemical
[6] = target: T1, 17β-hydroxysteroid dehydrogenase 2 (17β-HSD2); assay: radiolabeled estradiol conversion in lysates of transfected HEK-293 cells, single concentration […]; type: cell-based; conditions: HEK293
[7] = target: T2, 17β-hydroxysteroid dehydrogenase 1 (17β-HSD1); assay: radiolabeled estrone conversion in lysates of transfected HEK-293 cells, single concentration […]; type: cell-based; conditions: HEK293
[8] = target: T2, 17β-hydroxysteroid dehydrogenase 1 (17β-HSD1); assay: radiolabeled estrone to estradiol conversion in lysates of transfected HEK-293 cells; also intact COV434 cells (IC50 […]); type: biochemical; remark: listed apart in the source

| Structure (SMILES) | inhibition at 20 µM [2] [%] | inhibition at 20 µM [3] [%] | also measured |
| --- | --- | --- | --- |
| CCOC(=O)c1ccc(O)cc1 [2-P, ethylparaben] | 74 ± 4 | 7 ± 6 | IC50 [1]: 4600 nM |
| CCCCCCOC(=O)c1ccc(O)cc1 [6-P, hexylparaben] |  | 80 ± 5 | inhibition at 20 µM [4]: 58%; IC50 [5]: 2600 nM |
| O=C(OCc1ccccc1)c1ccc(O)cc1 [benzylparaben] |  |  | inhibition at 20 µM [6]: 64%; inhibition at 20 µM [7]: 67% |
| CCCCOC(=O)c1ccc(O)cc1 [butylparaben] | 30 ± 7 | 52 ± 10 |  |
| CCOC(=O)c1ccc(O)c(OC)c1 [ethyl vanillate] |  |  | IC50 [1]: 1300 nM |
| CCCCCCCOC(=O)c1ccc(O)cc1 [heptylparaben] |  | 83 ± 6 | inhibition at 20 µM [6]: 76%; IC50 [8]: 1800 nM |
| CC(C)COC(=O)c1ccc(O)cc1 [isobutylparaben] | 53 ± 7 |  | inhibition at 20 µM [7]: 65% |
| CC(C)OC(=O)c1ccc(O)cc1 [isopropylparaben] | 60 ± 1 | 32 ± 9 |  |
| COC(=O)c1ccc(O)cc1 [methylparaben] | 50 ± 6 | 0 |  |
| O=C(O)c1ccc(O)cc1 [p-hydroxybenzoic acid] | 0 | 7 ± 11 |  |
| O=C(Oc1ccccc1)c1ccc(O)cc1 [phenylparaben] |  | 35 ± 1 | inhibition at 20 µM [6]: 64% |
| CCCOC(=O)c1ccc(O)cc1 [propylparaben] | 37 ± 6 | 37 ± 5 |  |
